{"source": "patent US20150087616A1", "about": "“PREBIOTIC FORMULATIONS AND METHODS OF USE” (RITTER PHARMACEUTICALS, INC., priority 2011, published 2015)", "tested_on": "Bifidobacterium species", "assay": "Comparative growth of Bifidobacterium species in scratch MRS with 2% carbohydrate", "type": "cell-based", "settings": "five (four) Bifidobacterium species; scratch MRS + 2% carbohydrate", "protocol": "The objective of the study was to determine the ability of various Bifidobacterium species and strains to grow on galactooligosaccharides.\nThe growth of Lactobacillus and Bifidobacterium strains was evaluated in scratch MRS (Table 16) supplemented with 2% of a carbohydrate solution. The carbohydrates used in the experiments were: Glucose—Fisher; Lactose—Fisher; GOS1—95% GOS purity from Inalco SPA—Provided by Ritter Pharmaceuticals; GOS2—90% GOS purity from GTC—provided by Ritter Pharmaceuticals.\nCarbohydrate stock solutions were filter sterilized and then added to either a scratch MRS formulation (Table 16), or a semisynthetic medium (Table 17).\nLactobacillus and Bifidobacterium cultures were propagated in MRS broth overnight, and then transferred once through the test medium. For growth experiments, cultures were inoculated into the MRS scratch medium containing one of the 4 carbohydrates to be examined Growth was monitored either: **automatically, using a FLUOStar OPTIMA microtiter plate reader to monitor the change in absorbance (A600) as a function of the time. The strains were incubated at 37 C aerobically for these experiments; or ** manually, using a standard spectrophotometer to monitor the change in OD600 nm over time, in 5 ml liquid culture tubes. These cultures were incubated anaerobically at 37° C. in a COY anaerobic chamber, flushed with anaerobic gas. […]", "data": [{"smiles": "OC[C@H]1O[C@@H](O[C@H]2[C@H](O)[C@@H](O)C(O)O[C@@H]2CO)[C@H](O)[C@@H](O)[C@H]1O", "note": "(stereo partly shown) [lactose, Lactose]", "values": [{"measurement": "comparative growth on four carbohydrate sources (glucose, lactose, GOS1, GOS2)", "result": "none of the Bifidobacterium strains used in these experiments grew"}]}]}
